Results on 13 compounds are retold here after the OPERA property sets (Mansouri et al. 2018).

SMILES strings stand for the structures.

In the case of `CCCCCCNc1cc(-c2n[nH]c(N)n2)ccn1`, the logP (commonly the decadic logarithm of the partition coefficient of the neutral form, usually between octanol and water) came to 3.3.

Regarding `Cc1ccc(CNc2cc(-c3n[nH]c(N)n3)ccn2)cc1`, the logP came out at 2.69.

`C=CCNc1cc(-c2nc[nH]n2)ccn1`: the logP was 1.26.

`Nc1nc(-c2ccnc(NCCc3ccccc3)c2)n[nH]1` showed a logP of 2.63.

As to `Nc1n[nH]c(-c2ccnc(NCCO)c2)n1`, the logP came to 0.24.

As to `Nc1cc(-c2nnc(N)[nH]2)ccn1`, the lipophilicity (logP) was 0.11.

With `CCNc1cc(-c2nc(N)n[nH]2)ccn1`, the logP amounted to 1.13.

Consider `CCCCNc1cc(-c2n[nH]c(N)n2)ccn1`, for which the logP came out at 2.15.

Consider `CNc1cc(-c2n[nH]c(N)n2)ccn1`, for which the logP was determined as 0.69.

For `COCCNc1cc(-c2nnc(N)[nH]2)ccn1`, the log partition coefficient (logP) was determined as 0.94.

`CCCCCCCCCCNc1cc(-c2nnc(N)[nH]2)ccn1`: the logP worked out at 4.07.

Regarding `CCCNc1cc(-c2nnc(N)[nH]2)ccn1`, the log partition coefficient (logP) came out at 1.61.

Compound `Nc1nc(-c2ccnc(NCCCc3ccccc3)c2)n[nH]1` had a log partition coefficient (logP) of 3.05.
